In PubChem BioAssay (NCI):
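1) Cells in 96-well plates. 2) Compound, 48 h, 5 concentrations. 3) Linear interpolation between surrounding doses. 4) Unreached endpoint = highest concentration. At the GI50, growth is halved. TGI marks complete inhibition of growth.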

Key:
Assay in all cases: NCI tumour cell line growth inhibition, 48 h
786-0 renal = system: 786-0 renal
A498 renal = system: A498 renal
A549 NSCLC = system: A549 NSCLC
ACHN renal = system: ACHN renal
BT-549 breast = system: BT-549 breast
CAKI-1 renal = system: CAKI-1 renal
CCRF-CEM leukemia = system: CCRF-CEM leukemia
COLO 205 colon = system: COLO 205 colon
DU-145 prostate = system: DU-145 prostate
EKVX NSCLC = system: EKVX NSCLC
HCC-2998 colon = system: HCC-2998 colon
HCT-116 colon = system: HCT-116 colon
HCT-15 colon = system: HCT-15 colon
HL-60(TB) leukemia = system: HL-60(TB) leukemia
HOP-62 NSCLC = system: HOP-62 NSCLC
HOP-92 NSCLC = system: HOP-92 NSCLC
HS 578T breast = system: HS 578T breast
HT29 colon = system: HT29 colon
IGROV1 ovarian = system: IGROV1 ovarian
K-562 leukemia = system: K-562 leukemia
KM12 colon = system: KM12 colon
LOX IMVI melanoma = system: LOX IMVI melanoma
M14 melanoma = system: M14 melanoma
MALME-3M melanoma = system: MALME-3M melanoma
MCF7 breast = system: MCF7 breast
MDA-MB-231 breast = system: MDA-MB-231 breast
MDA-MB-435 = system: MDA-MB-435
MDA-MB-468 breast = system: MDA-MB-468 breast
MOLT-4 leukemia = system: MOLT-4 leukemia
NCI-H226 lung = system: NCI-H226 lung
NCI-H23 lung = system: NCI-H23 lung
NCI-H460 lung = system: NCI-H460 lung
NCI-H522 lung = system: NCI-H522 lung
OVCAR-3 ovarian = system: OVCAR-3 ovarian
OVCAR-4 ovarian = system: OVCAR-4 ovarian
OVCAR-5 ovarian = system: OVCAR-5 ovarian
OVCAR-8 ovarian = system: OVCAR-8 ovarian
PC-3 prostate = system: PC-3 prostate
RPMI-8226 leukemia = system: RPMI-8226 leukemia
RXF 393 renal = system: RXF 393 renal
SF-268 CNS = system: SF-268 CNS
SF-295 CNS = system: SF-295 CNS
SF-539 CNS = system: SF-539 CNS
SK-MEL-2 melanoma = system: SK-MEL-2 melanoma
SK-MEL-28 melanoma = system: SK-MEL-28 melanoma
SK-MEL-5 melanoma = system: SK-MEL-5 melanoma
SK-OV-3 ovarian = system: SK-OV-3 ovarian
SN12C renal = system: SN12C renal
SNB-19 CNS = system: SNB-19 CNS
SNB-75 CNS = system: SNB-75 CNS
SR leukemia = system: SR leukemia
SW-620 colon = system: SW-620 colon
T-47D breast = system: T-47D breast
TK-10 renal = system: TK-10 renal
U251 CNS = system: U251 CNS
UACC-257 melanoma = system: UACC-257 melanoma
UACC-62 melanoma = system: UACC-62 melanoma
UO-31 renal = system: UO-31 renal

Structure (SMILES): CC1=C(C(=O)Nc2ccccc2)C(c2cccc3ccccc23)n2c(nc3ccccc32)N1 (stereo unspecified)
- GI50 (786-0 renal): 25.1 µM
- TGI (786-0 renal): > 100 µM
- GI50 (A498 renal): > 100 µM
- TGI (A498 renal): > 100 µM
- GI50 (A549 NSCLC): 4.44 µM
- TGI (A549 NSCLC): > 100 µM
- GI50 (ACHN renal): 19.3 µM
- TGI (ACHN renal): > 100 µM
- GI50 (BT-549 breast): 13.1 µM
- TGI (BT-549 breast): > 100 µM
- GI50 (CAKI-1 renal): > 100 µM
- TGI (CAKI-1 renal): > 100 µM
- GI50 (CCRF-CEM leukemia): > 100 µM
- TGI (CCRF-CEM leukemia): > 100 µM
- GI50 (COLO 205 colon): > 100 µM
- TGI (COLO 205 colon): > 100 µM
- GI50 (DU-145 prostate): 47.3 µM
- TGI (DU-145 prostate): > 100 µM
- GI50 (EKVX NSCLC): 73.7 µM
- TGI (EKVX NSCLC): > 100 µM
- GI50 (HCC-2998 colon): > 100 µM
- TGI (HCC-2998 colon): > 100 µM
- GI50 (HCT-116 colon): 6.62 µM
- TGI (HCT-116 colon): > 100 µM
- GI50 (HCT-15 colon): > 100 µM
- TGI (HCT-15 colon): > 100 µM
- GI50 (HL-60(TB) leukemia): > 100 µM
- TGI (HL-60(TB) leukemia): > 100 µM
- GI50 (HOP-62 NSCLC): 20.2 µM
- TGI (HOP-62 NSCLC): 56.9 µM
- GI50 (HOP-92 NSCLC): 16.7 µM
- TGI (HOP-92 NSCLC): > 100 µM
- GI50 (HS 578T breast): 2.9 µM
- TGI (HS 578T breast): 20.1 µM
- GI50 (HT29 colon): > 100 µM
- TGI (HT29 colon): > 100 µM
- GI50 (IGROV1 ovarian): 89.2 µM
- TGI (IGROV1 ovarian): > 100 µM
- GI50 (K-562 leukemia): > 100 µM
- TGI (K-562 leukemia): > 100 µM
- GI50 (KM12 colon): > 100 µM
- TGI (KM12 colon): > 100 µM
- GI50 (LOX IMVI melanoma): 11 µM
- TGI (LOX IMVI melanoma): > 100 µM
- GI50 (M14 melanoma): > 100 µM
- TGI (M14 melanoma): > 100 µM
- GI50 (MALME-3M melanoma): 16.5 µM
- TGI (MALME-3M melanoma): 82 µM
- GI50 (MCF7 breast): > 100 µM
- TGI (MCF7 breast): > 100 µM
- GI50 (MDA-MB-231 breast): 10.1 µM
- TGI (MDA-MB-231 breast): 93.1 µM
- GI50 (MDA-MB-435): > 100 µM
- TGI (MDA-MB-435): > 100 µM
- GI50 (MDA-MB-468 breast): 26.6 µM
- TGI (MDA-MB-468 breast): > 100 µM
- GI50 (MOLT-4 leukemia): > 100 µM
- TGI (MOLT-4 leukemia): > 100 µM
- GI50 (NCI-H226 lung): 16.4 µM
- TGI (NCI-H226 lung): 96.1 µM
- GI50 (NCI-H23 lung): > 100 µM
- TGI (NCI-H23 lung): > 100 µM
- GI50 (NCI-H460 lung): > 100 µM
- TGI (NCI-H460 lung): > 100 µM
- GI50 (NCI-H522 lung): > 100 µM
- TGI (NCI-H522 lung): > 100 µM
- GI50 (OVCAR-3 ovarian): > 100 µM
- TGI (OVCAR-3 ovarian): > 100 µM
- GI50 (OVCAR-4 ovarian): 5.93 µM
- TGI (OVCAR-4 ovarian): > 100 µM
- GI50 (OVCAR-5 ovarian): > 100 µM
- TGI (OVCAR-5 ovarian): > 100 µM
- GI50 (OVCAR-8 ovarian): 14.5 µM
- TGI (OVCAR-8 ovarian): > 100 µM
- GI50 (PC-3 prostate): 23.1 µM
- TGI (PC-3 prostate): > 100 µM
- GI50 (RPMI-8226 leukemia): > 100 µM
- TGI (RPMI-8226 leukemia): > 100 µM
- GI50 (RXF 393 renal): 15.4 µM
- TGI (RXF 393 renal): 95.1 µM
- GI50 (SF-268 CNS): 30.4 µM
- TGI (SF-268 CNS): > 100 µM
- GI50 (SF-295 CNS): 60.4 µM
- TGI (SF-295 CNS): > 100 µM
- GI50 (SF-539 CNS): 15.2 µM
- TGI (SF-539 CNS): > 100 µM
- GI50 (SK-MEL-2 melanoma): 83.3 µM
- TGI (SK-MEL-2 melanoma): > 100 µM
- GI50 (SK-MEL-28 melanoma): > 100 µM
- TGI (SK-MEL-28 melanoma): > 100 µM
- GI50 (SK-MEL-5 melanoma): > 100 µM
- TGI (SK-MEL-5 melanoma): > 100 µM
- GI50 (SK-OV-3 ovarian): > 100 µM
- TGI (SK-OV-3 ovarian): > 100 µM
- GI50 (SN12C renal): 9.91 µM
- TGI (SN12C renal): > 100 µM
- GI50 (SNB-19 CNS): 9.08 µM
- TGI (SNB-19 CNS): 76.9 µM
- GI50 (SNB-75 CNS): 1.76 µM
- TGI (SNB-75 CNS): 5.95 µM
- GI50 (SR leukemia): > 100 µM
- TGI (SR leukemia): > 100 µM
- GI50 (SW-620 colon): > 100 µM
- TGI (SW-620 colon): > 100 µM
- GI50 (T-47D breast): > 100 µM
- TGI (T-47D breast): > 100 µM
- GI50 (TK-10 renal): > 100 µM
- TGI (TK-10 renal): > 100 µM
- GI50 (U251 CNS): 11.1 µM
- TGI (U251 CNS): > 100 µM
- GI50 (UACC-257 melanoma): > 100 µM
- TGI (UACC-257 melanoma): > 100 µM
- GI50 (UACC-62 melanoma): > 100 µM
- TGI (UACC-62 melanoma): > 100 µM
- GI50 (UO-31 renal): > 100 µM
- TGI (UO-31 renal): > 100 µM
